Reference: the PolyMetriX glass transition set
± gives the standard deviation of the reports.

Compound | glass transition temperature [°C]
*Oc1ccc(CC(NC(=O)CCc2ccc(OC(=O)CCCCCCCCC(*)=O)cc2)C(=O)OCCCCCCCCCCCC)cc1 (repeat unit) | 12.50
*C(=O)Nc1ccc(Cc2ccc(NC(=O)c3ccc4c(c3)C(=O)N(c3c(C)cc(-c5cc(C)c(N6C(=O)c7ccc(*)cc7C6=O)c(C)c5)cc3C)C4=O)c(C)c2)cc1C (repeat unit) | 329.00
*COc1ccc(C(c2ccc(OCC3(*)COC3)cc2)(C(F)(F)F)C(F)(F)F)cc1 (repeat unit) | 134.00
*C(=O)Nc1ccc2c(c1)-c1cc(NC(=O)c3ccc4c(c3)C(=O)N(c3cccc(P(=O)(c5ccccc5)c5cccc(N6C(=O)c7ccc(*)cc7C6=O)c5)c3)C4=O)ccc1C2 (repeat unit) | 248.00
*Nc1ccc(NC(=O)c2ccc(NC(=O)CCCCCCCCCCC(=O)Nc3ccc(C(*)=O)cc3)cc2)cc1C(=O)OCCCCCCCCCCCC (repeat unit) | 205.50
*CC1CCCC(CN2C(=O)c3ccc(-c4ccc5c(c4)C(=O)N(*)C5=O)cc3C2=O)C1 (repeat unit) | 234.00
*Oc1ccc(S(=O)(=O)c2ccc(-c3ccc(S(=O)(=O)c4ccc(Oc5ccc(-c6ccc(-c7ccc(*)cc7)cc6)cc5)cc4)cc3)cc2)cc1 (repeat unit) | 263.00
*CC(OC)C(C(=O)OC)C(*)C(=O)OC (repeat unit) | 59.50
*C(=O)c1ccc2c(c1)C(=O)N(c1ccc(C(C)(C)c3ccc(C(C)(C)c4ccc(N5C(=O)c6ccc(*)cc6C5=O)cc4)cc3)cc1)C2=O (repeat unit) | 322.00
*Oc1ccc(C2(c3ccc(Oc4ccc(C(=O)c5ccc(*)cc5)cc4)c(C)c3)CCC3CCCCC3C2)cc1C (repeat unit) | 201.00
*CCCCCCCCCCC(=O)NCCCCCC(=O)N* (repeat unit) | 25.50
*c1ccc2c(c1)C(=O)N(c1cc(N3C(=O)c4ccc(C(*)(C(F)(F)F)C(F)(F)F)cc4C3=O)cc(C(F)(F)F)c1)C2=O (repeat unit) | 290.50 ± 9.2
*c1ccc(Oc2cccc(-n3c(=O)c4cc5c(=O)n(*)c(=O)c5cc4c3=O)c2)cc1 (repeat unit) | 397.00
*Oc1ccc(S(=O)(=O)c2ccc(Oc3cccc(NC(=O)c4ccc(-c5ccc(C(=O)Nc6cccc(*)c6)c(C)c5)cc4C)c3)cc2)cc1 (repeat unit) | 220.00
*C(=O)OCCCCCCCCCCCCOC(=O)c1ccc(N2C(=O)c3ccc(*)cc3C2=O)cc1 (repeat unit) | 47.00
*CCCS(=O)(=O)CCCS(=O)(=O)CCCOC(=O)c1cccc(C(=O)O*)c1 (repeat unit) | 67.00
*Nc1cc(NC(=O)c2cc(OCCN(C)c3ccc(C#N)cc3)cc(C(*)=O)c2)cc(C(=O)OCCN(C)c2ccc(S(=O)(=O)C(F)(F)C(F)(F)C(F)(F)C(F)(F)C(F)(F)C(F)(F)C(F)(F)C(F)(F)F)cc2)c1 (repeat unit) | 165.00
*c1ccc2c(c1)C(=O)N(c1ccc(Oc3ccc(C(=O)c4cccc(N5C(=O)c6ccc(C(*)(C(F)(F)F)C(F)(F)F)cc6C5=O)c4)cc3)c(C(F)(F)F)c1)C2=O (repeat unit) | 222.00
*CC(C)(CO*)COCC(F)(F)C(F)(F)C(F)(F)C(F)(F)C(F)(F)C(F)(F)C(F)(F)F (repeat unit) | -49.00
*CC(C)(C)S* (repeat unit) | -14.00
*CCN(CCOC(=O)Nc1ccc(C)c(NC(=O)O*)c1)c1ccc(/C=C2/NC(=O)NC2=O)cc1 (repeat unit) | 178.00

Compound | glass transition temperature [°C]
*O[Si](C)(C)c1cccc(C(F)(F)C(F)(F)c2cccc([Si](*)(C)C)c2)c1 (repeat unit) | -2.00
*C(=O)c1ccc2c(c1)C(=O)N(c1c(C)cc(C(c3cc(C)c(N4C(=O)c5ccc(*)cc5C4=O)c(C)c3)c3cccc4ccccc34)cc1C)C2=O (repeat unit) | 318.00
*Oc1ccc(C(C)(C)c2ccc(OC(*)=O)c(C(C)C)c2)cc1C(C)C (repeat unit) | 80.00
*CC(*)OC(=O)C(F)(F)C(F)(F)C(F)(F)C(F)(F)C(F)(F)C(F)(F)C(F)(F)C(F)(F)C(F)(F)F (repeat unit) | -18.00
*CCCC(Cl)C(*)Cl (repeat unit) | 42.00
*CCCCCCCCOC(=O)Nc1ccc(NC(=O)OCCCCCCCCOc2ccc(-c3ccc(O*)cc3)cc2)c(C)c1 (repeat unit) | 81.00
*c1ccc(Oc2ccc(-c3ccc(Oc4ccc(N5C(=O)c6ccc(Oc7ccc(Sc8ccc(Oc9ccc%10c(c9)C(=O)N(*)C%10=O)cc8)cc7)cc6C5=O)cc4)cc3)cc2)cc1 (repeat unit) | 205.00
*CCCCc1ccc(-c2c(-c3ccccc3)cc(-c3cccc(-c4cc(-c5ccccc5)c(-c5ccc(*)cc5)c(-c5ccccc5)c4-c4ccccc4)c3)c(-c3ccccc3)c2-c2ccccc2)cc1 (repeat unit) | 180.00
*C(=O)c1ccc(N(*)CCCCCCC)cc1 (repeat unit) | 45.90
*c1ccc2c(c1)C(=O)N(c1cccc(C(O)c3cccc(N4C(=O)c5ccc(C(*)(C(F)(F)F)C(F)(F)F)cc5C4=O)c3)c1)C2=O (repeat unit) | 262.00
*Oc1ccc(S(=O)(=O)c2ccc(Oc3ccc(/C=C4\CCCC/C(=C\c5ccc(Oc6ccc(S(=O)(=O)c7ccc(Oc8ccc(C(C)(C)c9ccc(*)cc9)cc8)cc7)cc6)cc5)C4=O)cc3)cc2)cc1 (repeat unit) | 188.00
*CC(*)(C)C(=O)OCc1cccc(Cl)c1 (repeat unit) | 18.2
*CCCCOc1ccc(C(=O)OC(=O)c2ccc(O*)cc2)cc1 (repeat unit) | 45.00
*Oc1ccc(C(C)(C)c2ccc(Oc3ccc(C(=O)c4ccc5cc(C(=O)c6ccc(*)cc6)ccc5c4)cc3)cc2)cc1 (repeat unit) | 185.00
*CC(*)(C)C(=O)OCC1CC(NC(=O)C2CC(NC(=O)OC(C)(C)C)CN2C(=O)OC(C)(C)C)CN1C(=O)C1CC(NC(=O)OC(C)(C)C)CN1C(=O)OC(C)(C)C (repeat unit) | 200.00
*Nc1ccc(CC(C)(C)NC(=O)CCCCCCCCC(*)=O)cc1 (repeat unit) | 92.00
*c1ccc2oc(-c3ccc(Oc4ccc(-c5nc6cc(C(*)(C(F)(F)F)C(F)(F)F)ccc6o5)cc4)cc3)nc2c1 (repeat unit) | 303.00
*CC(*)c1ccc(C(=O)CCN2CCCCC2)cc1 (repeat unit) | 38.00
*CCCCCCCCOc1c(OC)cc(/C=C2\CCC/C(=C\c3cc(OC)c(O*)c(OC)c3)C2=O)cc1OC (repeat unit) | 62.00
*c1ccc(Oc2ccc(C(=O)c3ccc(Oc4ccc(-c5c6c(c(*)c7ccccc57)C(=O)N(c5cccc(C(F)(F)F)c5)C6=O)cc4)cc3)cc2)cc1 (repeat unit) | 252.00
*CCCNC(=O)CCCCCCCCC(=O)NCCCOCCOCCO* (repeat unit) | 40.00

Compound | glass transition temperature [°C]
*CCCCCOC(=O)c1cccc(C(=O)O*)c1 (repeat unit) | 7.00
*CC(F)(F)C(F)(F)C(F)(F)COC(=O)c1cccc(C(=O)O*)c1OCCCCC (repeat unit) | 17.00
*CC(*)(C)C(=O)OCCCCOc1ccc2cc(C(=O)Oc3ccccc3)ccc2c1 (repeat unit) | 88.00
*CC(*)OC(=O)c1ccc(OC)cc1 (repeat unit) | 86.50
*C(=O)c1ccc(C(=O)N2CC(C)N(*)CC2C)cc1 (repeat unit) | 350.00
*Oc1ccc(/N=C/c2ccc(Oc3ccc(C(c4ccccc4)(c4ccccc4)c4ccc(Oc5ccc(/C=N/c6ccc(*)cc6)cc5)cc4)cc3)cc2)cc1 (repeat unit) | 211.00
*c1nc(-c2ccccc2)nc(N(CCCCCCN(*)c2ccccc2)c2ccccc2)n1 (repeat unit) | 74.00
*Oc1ccc(C2(c3ccc(OC4(F)C(*)(F)C(F)(F)C4(F)F)cc3)c3ccccc3-c3ccccc32)cc1 (repeat unit) | 228.00
*NC(CCC(=O)OCc1ccc([N+](=O)[O-])cc1)C(*)=O (repeat unit) | 53.2
*CC(*)c1c(C)cc(C)cc1C (repeat unit) | 126.00
*c1cccc(Oc2cccc(Oc3cccc(N4C(=O)c5c(c(-c6ccccc6)c(-c6ccc(Oc7ccc(-c8c(-c9ccccc9)c9c(c(-c%10ccccc%10)c8-c8ccccc8)C(=O)N(*)C9=O)cc7)cc6)c(-c6ccccc6)c5-c5ccccc5)C4=O)c3)c2)c1 (repeat unit) | 261.00
*c1ccc(N2C(=O)c3ccc(C(=O)c4ccc5c(c4)C(=O)N(c4ccc(-c6nc7cc(-c8ccc9nc(-c%10ccccc%10)c(*)nc9c8)ccc7nc6-c6ccccc6)cc4)C5=O)cc3C2=O)cc1 (repeat unit) | 260.00
*Oc1c(Cl)cc(C(=C(Cl)Cl)c2cc(Cl)c(OC(*)=O)c(Cl)c2)cc1Cl (repeat unit) | 250.00
*CC(*)(CC(=O)OC)C(=O)OC12CC3CC(C)(CC(C)(C3)C1)C2 (repeat unit) | 144.00
*CC(*)C(=O)Oc1ccccc1C (repeat unit) | 51.50
*C(=O)c1cc(C(=O)c2ccc3c(c2)C(=O)N(c2ccc(Oc4ccc(S(=O)(=O)c5ccc(Oc6ccc(N7C(=O)c8ccc(*)cc8C7=O)cc6)cc5)cc4)cc2)C3=O)cc(C(C)(C)C)c1 (repeat unit) | 254.50
*C#C/C(COS(=O)(=O)c1ccc(C)cc1)=C(/*)COS(=O)(=O)c1ccc(C)cc1 (repeat unit) | -73.00
*CCCCCCOC(=O)C(CCCCCCCCCCP(=O)(O)O)C(=O)OCCCCCCOc1ccc(-n2on2-c2ccc(O*)cc2)cc1 (repeat unit) | 16.00
*c1ccc2oc(C3CCC(c4nc5cc(C(*)(C(F)(F)F)C(F)(F)F)ccc5o4)CC3)nc2c1 (repeat unit) | 271.00
